# Experimental data from patent US12121521B2, “Uses of salt-inducible kinase (SIK) inhibitors for treating osteoporosis” (The General Hospital Corporation, priority 2016, dated 2024).
# “Also recorded” adds a separate entry of the source.
# Experiments:
# Ocy454 cells [1] = test: Immunoblotting of Ocy454 cell lysates (HDAC4/5, CRTC2, SIK2 phosphorylation and localisation); type: cell-based, mouse; conditions: 10 uM, 90 minutes, compared to DMSO control; FIGS. 17 to 19
# Procedure: The Ocy454 osteocyte cell line was treated for 90 minutes with the indicated compound at 10 uM dose (FIG. 17). Phospho-HDAC4 S246 levels were monitored by immunoblotting (top band) compared to DMSO control.
# For all experiments, a single cell subclone of Ocy454 cells (17, 18) was used. Cells were passages in alpha-MEM supplemented with 10% heat-inactivated fetal bovine serum and 1% antibiotics (penicillin/streptomycin, Fungizone) at 33° C. with 5% CO2. Cells were plated at 50,000 cells/ml and allowed to reach confluency at 33° C. (typically in 2-3 days). At this point, cells were transferred to 37° C. for subsequent analysis. For immunoblotting, cells were always analyzed after culture at 37° C. for 7 days. For gene expression analysis, cells were analyzed after culture at 37° C. for 14 days. Mycoplasma contamination was ruled out by PCR. Cells were routinely assayed for SOST expression at 37° C. and examined for osteocytic morphology. […]
# Ocy454 cells [2] = test: RNA-seq of treated Ocy454 cells; type: cell-based, mouse
# Procedure: The ability of YKL-05-093 to mimic the effects of PTH with respect to SOST and RANKL gene regulation supports the hypothesis that the actions of YKL-05-093 might mimic the effects of PTH on many genes. Therefore, RNA-seq was perfumed on Ocy454 cells treated for four hours with vehicle, PTH (1 nM), or YKL-05-093 (0.5 μM) to determine the overlap in global gene regulation by these two agents. […] Of the 446 PTH-regulated genes, 142 (32%) were co-regulated in the same direction by YKL-05-093 (FIGS. 6A and 6B and Table 3 for differentially expressed genes, and Table 4 for all RNA-seq data). This significant overlap was not due to random chance (FIGS. 15A and 15B). Gene ontology analysis for the genes regulated by both PTH and YKL-05-093 is shown in FIGS. 15C and 15D: many of the co-regulated genes fit into categories of interest such as “ossification” and “mesenchyme development”,
# Total RNA was subjected to rRNA depletion using RiboZero kit (Illumina) followed by NGS library construction using NEBNext Ultra Directional RNA Library Prep Kit for Illumina (New England Biolabs). Experimental duplicates were performed for each condition. Sequencing was performed on Illumina HiSeq 2500 instrument, resulting in an average of 33 million pairs of 50 bp reads per sample. Sequencing reads were mapped to the mouse reference genome (mm10/GRCm38) using STAR (bioinformatics.oxfordjournals.org/content/early/2012/10/25/bioinformatics.bts635). Gene expression counts were calculated using HTSeq v.0.6.0 (www.huber.embl.de/users/anders/HITSeq/doc/overview.html) based on a current Ensembl annotation file for mm10/GRCm38 (release 75). Differential expression analysis was performed using EgdeR package based on the criteria of >2-fold change in expression value versus control and false discovery rates (FDR)<0.05. Venn diagrams from gene set analysis were generated using genes with >1.5 fold change in expression values and FDR <0.05. Significance testing for gene set overlap was performed according to a standard hypergeometric distribution, p-values <2.2*10^−16. The accession number for the RNA-seq dataset reporter in this paper is GEO: GSE76932 (www.ncbi.nlm.nih.gov/geo/query/acc.cgi?acc=GSE76932).
# [3] = test system: M-CSF+RANKL-primed osteoclastogenesis; test: Osteoclast differentiation of bone marrow-derived macrophages (TRAP); type: cell-based, murine; conditions: in vitro; read-out: IC50 of inhibition of M-CSF+RANKL-primed osteoclastogenesis
# Procedure: Static and dynamic histomorphometry was performed (see FIG. 24). […] Effects on osteoclast differentiation were assessed by TRAP secretion assays and counting multi-nucleated TRAP-positive cells (see FIG. 26). M-CSF signaling in primary macrophages, was assessed by immunoblotting for MCSF-receptor Y723 phosphorylation and ERK1/2 phosphorylation (see FIG. 27).
# tyrosine kinase Src = tyrosine kinase Src (Homo sapiens, UniProt P12931); conditions: cited from earlier work
# Chain of tyrosine kinase Src (P12931 whole entry): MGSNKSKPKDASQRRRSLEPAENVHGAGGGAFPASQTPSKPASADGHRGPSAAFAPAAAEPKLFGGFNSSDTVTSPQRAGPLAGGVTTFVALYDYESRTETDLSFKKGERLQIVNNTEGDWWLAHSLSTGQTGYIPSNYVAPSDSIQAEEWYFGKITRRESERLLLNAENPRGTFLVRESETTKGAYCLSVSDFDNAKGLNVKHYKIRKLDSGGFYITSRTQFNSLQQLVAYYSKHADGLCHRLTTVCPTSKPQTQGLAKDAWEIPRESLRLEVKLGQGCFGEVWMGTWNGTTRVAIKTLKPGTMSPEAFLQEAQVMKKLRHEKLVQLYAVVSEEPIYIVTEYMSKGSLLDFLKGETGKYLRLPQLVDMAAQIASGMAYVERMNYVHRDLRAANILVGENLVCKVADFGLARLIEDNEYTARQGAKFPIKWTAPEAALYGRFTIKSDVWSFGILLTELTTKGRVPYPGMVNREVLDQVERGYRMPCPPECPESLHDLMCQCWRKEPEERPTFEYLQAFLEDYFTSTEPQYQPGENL
smiles,measurement,setting,value
COc1ccc(N2C(=O)N(c3c(C)cccc3C)Cc3cnc(Nc4ccc(C5CCN(C)CC5)c(OC)c4)nc32)c(OC)c1 [YKL-05-093],Phospho-HDAC4 S246 levels,Ocy454 cells [1],showed clear activity with respect to reducing HDAC4 S246 levels; also recorded: most reproducibly led to reduced HDAC4 S246 phosphorylation
same,genes down-regulated by both PTH and YKL-05-093,Ocy454 cells [2],45 genes
same,genes down-regulated by the agent alone,Ocy454 cells [2],59 genes
same,genes up-regulated by both PTH and YKL-05-093,Ocy454 cells [2],97 genes
same,genes up-regulated by the agent alone,Ocy454 cells [2],56 genes
COc1ccc(N2C(=O)N(c3c(C)cccc3Cl)Cc3cnc(Nc4ccc(C5CCN(C)CC5)cc4OC)nc32)nc1 [YKL-05-099],IC50,[3],52 nM
same,inhibition of the tyrosine kinase Src,tyrosine kinase Src,known to inhibit the tyrosine kinase Src
